From ChEMBL document CHEMBL1201862, “PubChem BioAssay data set” (2004)
Several values for one entry are separate records, joined by “and”; a condition that tells them apart may be missing. Identical values can stand only once. Activity calls are given as the source filed them. For most assays here, no stated cut-off is given here; in the data, actives have a measured IC50 and inactives only a lower limit.

Legend:
[1] = HEK-293T cell viability reduction – luminescence, B-cell screen hits, cytotoxicity control for BCR NF-kB inhibitor project, dose response (AID 489021); assay type: functional, cell-based;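 further: HEK-293T cells carrying an NF-kB luciferase reporter; cells exposed to compound for about 14 hours before viability readout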
[2] = biological target: E3 ubiquitin-protein ligase XIAP (Homo sapiens, UniProt P98170); test: Counter Screen using XIAP-Bir3 for Chemical Antagonists of Bir1/2 domains of IAP-family anti-apoptotic proteins. [Related pubchem assays (depositor defined):AID1018, AID1449, AID1514, AID1638, AID1749, AID1750, AID488957, AID488963]
[3] = biological target: G-protein coupled receptor 55 (Homo sapiens, UniProt Q9Y2T6); test: selective activators of receptor GPR55 – imaging, U2OS cells, beta-arrestin-GFP redistribution, primary screen (AID 1961); assay type: functional
Ephrin type-A receptor 4 = Ephrin type-A receptor 4 (Mus musculus, UniProt Q03137); test: EphA4 ligand-binding antagonists – biochemical, colorimetric, mouse EphA4, primary screen (AID 689); assay type: functional
[4] = biological target: T1, Nucleotide-binding oligomerization domain-containing protein 2 (Homo sapiens, UniProt Q9HC29); test: PubChem AID 2334; assay type: functional
HEK293 [5] = test: inhibition of NOD1-driven NF-kB reporter – cell-based, luminescence, uHTS, primary screen (AID 1578); assay type: functional; settings: Homo sapiens
HEK293 [6] = test: cells; settings: Homo sapiens
[7] = biological target: T1, Nucleotide-binding oligomerization domain-containing protein 2; test: inhibition of NOD2 signaling – set 2, SAR follow-up (AID 2475); assay type: functional
Tumor necrosis factor [8] = biological target: T2, Tumor necrosis factor (Homo sapiens, UniProt P01375); test: analog potency on TNFa NF-kB signaling – cell-based, set 3, SAR follow-up (AID 2801); assay type: functional
HEK293 [9] = test: NOD2 signaling inhibitors in MDP-stimulated cells, cell-based, uHTS, luminescence (AID 2001); assay type: functional; settings: Homo sapiens
[10] = biological target: T3, Nucleotide-binding oligomerization domain-containing protein 1 (Homo sapiens, UniProt Q9Y239); test: blockers of NOD1 pathway activity – revised, SAR follow-up (AID 2333); assay type: functional
T3 sequence (Q9Y239 whole entry): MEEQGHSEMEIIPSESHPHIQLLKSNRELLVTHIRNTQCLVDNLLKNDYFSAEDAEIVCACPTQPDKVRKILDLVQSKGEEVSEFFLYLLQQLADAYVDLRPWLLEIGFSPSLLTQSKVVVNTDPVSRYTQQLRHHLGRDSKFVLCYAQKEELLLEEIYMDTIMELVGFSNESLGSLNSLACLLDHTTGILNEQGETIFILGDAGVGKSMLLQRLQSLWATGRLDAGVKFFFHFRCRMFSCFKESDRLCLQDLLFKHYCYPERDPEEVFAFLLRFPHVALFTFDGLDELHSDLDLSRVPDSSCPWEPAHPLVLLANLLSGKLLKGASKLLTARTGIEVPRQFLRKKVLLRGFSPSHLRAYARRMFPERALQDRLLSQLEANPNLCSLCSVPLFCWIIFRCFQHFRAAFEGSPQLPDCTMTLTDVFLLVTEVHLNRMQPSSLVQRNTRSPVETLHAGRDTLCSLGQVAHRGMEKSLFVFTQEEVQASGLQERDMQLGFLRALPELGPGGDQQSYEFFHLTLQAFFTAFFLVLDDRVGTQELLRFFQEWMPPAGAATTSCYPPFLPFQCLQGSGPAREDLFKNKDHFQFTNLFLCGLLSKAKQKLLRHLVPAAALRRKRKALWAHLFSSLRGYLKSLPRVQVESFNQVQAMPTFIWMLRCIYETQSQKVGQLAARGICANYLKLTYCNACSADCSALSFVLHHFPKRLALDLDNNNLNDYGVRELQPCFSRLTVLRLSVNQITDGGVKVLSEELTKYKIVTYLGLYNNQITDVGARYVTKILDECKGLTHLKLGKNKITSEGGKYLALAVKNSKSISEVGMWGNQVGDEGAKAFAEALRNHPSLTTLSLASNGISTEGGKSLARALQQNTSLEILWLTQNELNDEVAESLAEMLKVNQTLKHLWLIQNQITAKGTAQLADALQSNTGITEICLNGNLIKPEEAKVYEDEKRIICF

HEK293 [11] = test: cells; assay type: functional, cell-based; settings: Homo sapiens
Interleukin-8 [12] = biological target: T4, Interleukin-8 (Homo sapiens, UniProt P10145); test: SAR analysis of GM-Tri-DAP induced IL-8 secretion in MCF-7/NOD1 cells - Set 2. [Related pubchem assays (depositor defined):AID1575, AID1578, AID2333]; assay type: functional, cell-based
T4 sequence (P10145 whole entry): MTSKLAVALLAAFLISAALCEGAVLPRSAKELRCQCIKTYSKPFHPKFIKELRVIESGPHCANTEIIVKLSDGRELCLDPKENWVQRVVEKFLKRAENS

HEK293 [13] = test: cells; assay type: functional, cell-based; settings: Homo sapiens; remark: listed apart in the source
HEK293 [14] = test: SAR analysis of compounds that are cytotoxic to HEK293 - Set 3. [Related pubchem assays (depositor defined):AID1575, AID1578, AID1848, AID1849, AID2001, AID2333, AID2334, AID2335, AID2337, AID2469]; assay type: functional, cell-based; settings: Homo sapiens
Interleukin-8 [15] = biological target: T4, Interleukin-8; test: SAR analysis of Tumor necrosis factor alpha (TNF-alpha) induced IL-8 secretion in MCF-7/NOD1 cells - Set 2. [Related pubchem assays (depositor defined):AID1575, AID2250, AID2260]; assay type: functional, cell-based
[16] = biological target: T3, Nucleotide-binding oligomerization domain-containing protein 1; test: SAR analysis of compounds that inhibit NOD1 - Set 3. [Related pubchem assays (depositor defined):AID1566, AID1575, AID1578, AID1849, AID1852, AID2333, AID2335, AID2466]; assay type: functional
Tumor necrosis factor [17] = biological target: T2, Tumor necrosis factor; test: analog potency on TNFa NF-kB signaling – cell-based, revised, SAR follow-up (AID 2337); assay type: functional
[18] = biological target: T3, Nucleotide-binding oligomerization domain-containing protein 1; test: SAR analysis of NF-kappaB dependent luciferase using DAP as an inducer - Set 2. [Related pubchem assays (depositor defined):AID1566, AID1575, AID1578, AID1579, AID1849, AID1852, AID2264]; assay type: functional
[19] = biological target: T1, Nucleotide-binding oligomerization domain-containing protein 2; test: inhibition of MDP-driven NOD2 NF-kB reporter – cell-based, set 3, SAR follow-up (AID 2799); assay type: functional
HEK293 [20] = test: SAR analysis of compounds that are cytotoxic to HEK293 - Set 2. [Related pubchem assays (depositor defined):AID1575, AID1578, AID1849, AID2001, AID2333, AID2334, AID2335, AID2337, AID2800]; assay type: functional, cell-based; settings: Homo sapiens

T1 sequence (Q9HC29 whole entry, the tested form may be a part): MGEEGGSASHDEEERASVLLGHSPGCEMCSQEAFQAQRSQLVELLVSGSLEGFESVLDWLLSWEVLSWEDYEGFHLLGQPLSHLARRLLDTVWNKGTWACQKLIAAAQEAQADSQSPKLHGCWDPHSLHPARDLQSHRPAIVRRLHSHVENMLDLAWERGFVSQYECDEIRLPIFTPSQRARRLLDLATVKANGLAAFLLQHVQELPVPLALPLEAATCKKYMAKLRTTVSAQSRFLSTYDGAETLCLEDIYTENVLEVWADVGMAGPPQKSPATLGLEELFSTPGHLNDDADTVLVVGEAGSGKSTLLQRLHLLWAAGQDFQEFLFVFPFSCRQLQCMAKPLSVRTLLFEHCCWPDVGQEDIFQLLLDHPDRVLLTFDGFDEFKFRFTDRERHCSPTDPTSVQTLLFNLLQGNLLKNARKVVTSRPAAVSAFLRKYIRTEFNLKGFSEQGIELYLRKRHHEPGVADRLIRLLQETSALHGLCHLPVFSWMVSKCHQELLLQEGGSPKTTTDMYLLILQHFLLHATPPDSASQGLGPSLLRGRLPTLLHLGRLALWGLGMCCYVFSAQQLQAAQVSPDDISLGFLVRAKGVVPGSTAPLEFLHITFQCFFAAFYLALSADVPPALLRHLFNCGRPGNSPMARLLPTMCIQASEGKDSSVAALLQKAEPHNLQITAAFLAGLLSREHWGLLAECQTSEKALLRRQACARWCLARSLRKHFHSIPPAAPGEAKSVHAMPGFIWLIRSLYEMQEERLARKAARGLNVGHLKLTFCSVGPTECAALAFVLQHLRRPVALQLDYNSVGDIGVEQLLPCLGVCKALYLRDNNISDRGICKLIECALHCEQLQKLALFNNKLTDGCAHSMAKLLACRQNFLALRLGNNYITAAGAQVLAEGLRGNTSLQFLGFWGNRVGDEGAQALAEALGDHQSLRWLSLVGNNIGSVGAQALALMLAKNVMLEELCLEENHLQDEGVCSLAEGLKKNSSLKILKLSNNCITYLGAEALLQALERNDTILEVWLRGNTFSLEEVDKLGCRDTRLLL
T2 sequence (P01375 whole entry): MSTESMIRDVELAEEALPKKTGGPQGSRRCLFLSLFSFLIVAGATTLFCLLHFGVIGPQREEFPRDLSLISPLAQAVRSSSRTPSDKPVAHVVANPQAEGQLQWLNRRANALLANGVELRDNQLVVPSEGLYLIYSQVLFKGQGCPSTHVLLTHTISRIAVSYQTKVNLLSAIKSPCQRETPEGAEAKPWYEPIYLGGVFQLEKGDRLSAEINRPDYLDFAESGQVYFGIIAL
G-protein coupled receptor 55, sequence (Q9Y2T6 whole entry): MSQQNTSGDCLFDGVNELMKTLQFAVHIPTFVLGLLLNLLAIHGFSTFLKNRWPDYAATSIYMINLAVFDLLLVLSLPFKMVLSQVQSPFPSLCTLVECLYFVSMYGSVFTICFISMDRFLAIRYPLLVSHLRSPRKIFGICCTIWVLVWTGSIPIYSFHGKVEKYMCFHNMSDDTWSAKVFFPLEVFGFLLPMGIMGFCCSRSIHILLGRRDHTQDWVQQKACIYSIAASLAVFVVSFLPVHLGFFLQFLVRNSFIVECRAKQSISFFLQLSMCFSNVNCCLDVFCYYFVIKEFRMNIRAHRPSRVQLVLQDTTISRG
Ephrin type-A receptor 4, sequence (Q03137 whole entry, the tested form may be a part): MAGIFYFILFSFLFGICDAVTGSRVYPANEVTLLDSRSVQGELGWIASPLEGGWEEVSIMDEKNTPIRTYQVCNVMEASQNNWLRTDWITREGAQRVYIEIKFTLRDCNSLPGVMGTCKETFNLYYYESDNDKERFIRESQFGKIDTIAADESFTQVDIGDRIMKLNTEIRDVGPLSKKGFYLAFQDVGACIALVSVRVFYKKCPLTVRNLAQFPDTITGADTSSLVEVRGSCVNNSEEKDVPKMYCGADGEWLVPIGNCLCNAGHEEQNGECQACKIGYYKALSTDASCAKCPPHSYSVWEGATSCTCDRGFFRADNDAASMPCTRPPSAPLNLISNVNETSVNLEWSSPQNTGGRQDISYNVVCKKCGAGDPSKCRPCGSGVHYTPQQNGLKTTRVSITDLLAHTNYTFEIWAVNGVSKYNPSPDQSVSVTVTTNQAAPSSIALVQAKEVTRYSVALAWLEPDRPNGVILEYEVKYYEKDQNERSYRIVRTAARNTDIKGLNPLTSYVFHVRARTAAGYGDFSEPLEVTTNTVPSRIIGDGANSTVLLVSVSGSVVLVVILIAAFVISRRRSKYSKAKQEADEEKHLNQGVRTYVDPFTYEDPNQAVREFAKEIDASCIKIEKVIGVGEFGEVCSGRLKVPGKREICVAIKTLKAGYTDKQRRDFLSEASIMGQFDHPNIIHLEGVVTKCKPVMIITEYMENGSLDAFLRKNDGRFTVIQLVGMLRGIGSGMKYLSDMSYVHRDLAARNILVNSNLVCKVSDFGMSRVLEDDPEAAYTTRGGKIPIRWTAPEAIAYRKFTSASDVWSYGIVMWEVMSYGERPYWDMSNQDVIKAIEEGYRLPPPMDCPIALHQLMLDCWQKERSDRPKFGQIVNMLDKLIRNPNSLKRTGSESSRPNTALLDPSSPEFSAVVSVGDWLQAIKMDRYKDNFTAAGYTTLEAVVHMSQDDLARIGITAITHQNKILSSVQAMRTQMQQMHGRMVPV
E3 ubiquitin-protein ligase XIAP, sequence (P98170 whole entry): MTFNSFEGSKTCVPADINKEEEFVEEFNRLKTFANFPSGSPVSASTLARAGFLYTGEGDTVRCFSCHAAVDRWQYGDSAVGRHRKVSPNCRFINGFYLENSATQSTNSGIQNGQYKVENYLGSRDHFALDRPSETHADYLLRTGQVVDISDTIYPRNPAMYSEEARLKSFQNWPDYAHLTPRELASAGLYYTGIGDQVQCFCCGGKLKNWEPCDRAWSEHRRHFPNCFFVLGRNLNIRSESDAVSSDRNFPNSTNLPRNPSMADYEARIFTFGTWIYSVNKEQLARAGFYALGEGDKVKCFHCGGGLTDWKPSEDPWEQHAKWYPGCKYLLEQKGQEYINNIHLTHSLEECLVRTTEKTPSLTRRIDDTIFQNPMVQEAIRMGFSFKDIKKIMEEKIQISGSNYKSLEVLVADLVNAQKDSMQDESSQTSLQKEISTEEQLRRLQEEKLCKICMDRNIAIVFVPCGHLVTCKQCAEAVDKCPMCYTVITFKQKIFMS

Compound: CCC(C)N1C(=O)/C(=C/c2c(NCCCOC(C)C)nc3c(C)cccn3c2=O)SC1=S (stereo unspecified)
- IC50 [1]: > 80 µM (inactive)
- IC50 [2]: > 20 µM (inactive)
- EC50 [3]: 532 nM (active)
- IC50 (Ephrin type-A receptor 4): 9.88 µM (active)

Compound: C/C=C/Cn1c(SCCCc2ccccc2)nc2c1c(=O)[nH]c(=O)n2C
- IC50 [4]: 16.9 µM (active)
- EC50 (HEK293 [5]): 6.37 µM (active)
- IC50 (HEK293 [6]): > 20 µM (inactive)
- IC50 [7]: 4.18 µM (active)
- IC50 (Tumor necrosis factor [8]): 18.2 µM (active) and 18.6 µM (inactive)
- IC50 (HEK293 [9]): 16.2 µM (inactive)
- IC50 [10]: 1.81 µM (active)
- IC50 (HEK293 [11]): > 20 µM (inactive)
- IC50 (Interleukin-8 [12]): 3.43 µM (active)
- IC50 (HEK293 [13]): > 20 µM (inactive)
- IC50 (HEK293 [14]): > 20 µM (inactive)
- IC50 (Interleukin-8 [15]): > 25 µM (inactive)
- IC50 [16]: 1.36 µM (active)
- IC50 (Tumor necrosis factor [17]): 62.7 µM (inactive)
- IC50 [18]: 14.4 µM (active)
- IC50 [19]: 7.97 µM (active) and 10.6 µM (active)
- IC50 (HEK293 [20]): > 20 µM (inactive)
